“And” between values parts separate entries of the source, which are not always exact repeats. Identical values can stand only once. Like-named read-outs stand apart in the source and are kept apart here. Marks after values point to notes of the source that are not given here. Ends that are not written are not given here.
Legend:
[1] = Pharmacokinetics after single intravenous dose in rats; conditions: single i.v. 10 μg/kg; for level at 5 min / level at 0.25 h / level at 0.5 h / level at 1 h / level at 2 h: Sprague Dawley, plasma, Plasma Concentration; for level at 1 h: 60 min; for AUC0-last / Cl / Cmax / Vss / t½ / AUC(0-t) / clearance / Vd / half-life: Sprague Dawley rats; for AUC(0-t): AUC0-last; for clearance: Cl; for Vd: Vss; for half-life: t½
Protocol: Pharmacokinetic parameters were determined for the following 5 different extended GLP-1 peptides:
Parameters were determined following a single intravenous dose of 10 μg/kg in four different rats.

[2] = Dog hyperglycemic clamp study, GLP-1 peptide concentration; parameters: species or system dogs; conditions: in vivo, iv
Protocol: Several different extended and non-extended GLP-1 peptides were tested for activity in a hyperglycemic clamp study in dogs. Glucose was infused for 200 minutes to maintain constant levels. For the first 80 minutes dogs were infused intravenously with vehicle to establish a baseline insulin concentration. For the next 60 minutes, GLP-1 peptides were administered at a rate of 1 pmol/kg/min. For the final 60 minutes the infusion rate of each GLP-1 compound was increased to 3 pmol/kg/min. Blood samples were taken periodically for the determination of insulin and GLP-1 peptide concentrations. Insulin change values were calculated as the difference between the value at time t and the average value during the last 20 minutes of the control period (60-80) minutes and are presented in Table 3. Areas under the insulin change curves were calculated using the trapezoidal rule over the last 30 minutes of each infusion period. Values listed are the means±standard error of the mean (SEM).

[3] = rat, iv, 10 ug/kg, 5 min, Mean of 4 rats
[4] = rat, iv, 10 ug/kg, 5 min, individual rats
[5] = rat, iv, 10 ug/kg, 15 min, Mean of 4 rats
[6] = rat, iv, 10 ug/kg, 15 min, individual rats
[7] = rat, iv, 10 ug/kg, 30 min, Mean of 4 rats
[8] = rat, iv, 10 ug/kg, 30 min, individual rats
[9] = rat, iv, 10 ug/kg, Mean of 4 rats (values below LLOQ taken as zero)
[10] = rat, iv, 10 ug/kg, individual rats
[11] = rat, iv, 10 ug/kg, 120 min, individual rats
[12] = rat, in vivo, iv, 10 ug/kg, Mean of 4 rats
[13] = rat, in vivo, iv, 10 ug/kg, individual rats
[14] = rat, in vivo, iv, 10 ug/kg, Cmax, Mean of 4 rats
[15] = rat, in vivo, iv, 10 ug/kg, Cmax, individual rats
[16] = infusion rate 1 pmol/kg/min i.v., dog hyperglycemic clamp, after 60 minutes of infusion, mean ± SEM, read-out: Compound Concentration (t = 60′)
[17] = infusion rate 3 pmol/kg/min i.v., dog hyperglycemic clamp, after 60 minutes of infusion, mean ± SEM, read-out: Compound Concentration (t = 60′)

Compound | Plasma Concentration ([1]; 120 min, individual rats) | level at 5 min [1, 3] [ng/mL] | level at 5 min [1, 4] [ng/mL] | level at 0.25 h [1, 5] [ng/mL] | level at 0.5 h [1, 7] [ng/mL] | level at 1 h [1, 9] [ng/mL] | AUC0-last ([1]; individual rats) | Cl ([1]; individual rats) | Cmax ([1]; individual rats) | Vss ([1]; individual rats) | t½ ([1]; individual rats) | AUC(0-t) [1, 12] [ng·h/mL] | AUC(0-t) [1, 13] [ng·h/mL] | clearance [1, 12] [mL/min/kg] | clearance [1, 13] [mL/min/kg] | Cmax [1, 14] [ng/mL] | Vd [1, 12] [L/kg] | half-life [1, 12] [min] | level at time molar at 1 h ([2]; dog, 1 pmol/kg/min) [nM] | level at time molar at 1 h ([2]; dog, 3 pmol/kg/min) [nM] | other results
HVEGTFTSDVSSYLEEQAAKEFIAWLVKGRGSSGAPPPS [Compound 3] | <150 ^a pg/mL | 23.2 | 23.6 | 8.81 | 3.44 | 0.657 | 465.6 ng·min/mL and 492.5 ng·min/mL and 409.1 ng·min/mL | 21.5 mL/min/kg and 20.3 mL/min/kg and 24.4 mL/min/kg | 22.7 ng/mL and 24.3 ng/mL and 21.1 ng/mL | 0.2805 L/kg and 0.2624 L/kg and 0.3134 L/kg | 11.7 min and 12.0 min and 14.4 min | 7.96 | 7.78 | 21 | 21.4 | 23.3 | 0.277 | 12.1 |  |  | Plasma Concentration ([1]; 15 min, individual rats): 8467 pg/mL; level at 0.25 h [1, 6]: 8.6 ng/mL; level at 0.5 h [1, 8]: 3 ng/mL; level at 1 h [1, 10]: 0.566 ng/mL; level at 2 h [1, 11]: < 0.15 ng/mL; Cmax [1, 15]: 23.6 ng/mL; Vd [1, 13]: 0.263 L/kg; half-life [1, 13]: 11.6 min
HVEGTFTSDVSSYLEEQAVKEFIAWLIKGRGSSGAPPPS [SEQ ID NO:35] |  |  |  |  |  |  |  |  |  |  |  |  |  |  |  |  |  |  | 0.267 ± 0.031 | 1.04 ± 0.103 | 
CC[C@H](C)[C@H](NC(=O)[C@H](Cc1ccccc1)NC(=O)[C@H](CCC(=O)O)NC(=O)[C@H](CCCCN)NC(=O)[C@H](C)NC(=O)[C@H](C)NC(=O)[C@H](CCC(N)=O)NC(=O)CNC(=O)[C@H](CCC(=O)O)NC(=O)[C@H](CC(C)C)NC(=O)[C@H](Cc1ccc(O)cc1)NC(=O)[C@H](CO)NC(=O)[C@H](CO)NC(=O)[C@@H](NC(=O)[C@H](CC(=O)O)NC(=O)[C@H](CO)NC(=O)[C@@H](NC(=O)[C@H](Cc1ccccc1)NC(=O)[C@@H](NC(=O)CNC(=O)[C@H](CCC(=O)O)NC(=O)[C@@H](NC(=O)[C@@H](N)Cc1c[nH]cn1)C(C)C)[C@@H](C)O)[C@@H](C)O)C(C)C)C(=O)N[C@@H](C)C(=O)N[C@@H](Cc1c[nH]c2ccccc12)C(=O)N[C@@H](CC(C)C)C(=O)N[C@H](C(=O)N[C@@H](CCCCN)C(=O)NCC(=O)N[C@@H](CCCNC(=N)N)C(=O)NCC(=O)N[C@@H](CO)C(=O)N[C@@H](CO)C(=O)NCC(=O)N[C@@H](C)C(=O)N1CCC[C@H]1C(=O)N1CCC[C@H]1C(=O)N1CCC[C@H]1C(=O)N[C@@H](CO)C(=O)O)C(C)C [Compound 4] | <150 ^a pg/mL | 23.6 | 25.4 | 9.86 | 3.18 | 0.636 | 486.7 ng·min/mL and 424.9 ng·min/mL and 461.5 ng·min/mL | 20.5 mL/min/kg and 23.5 mL/min/kg and 21.7 mL/min/kg | 24.9 ng/mL and 20.0 ng/mL and 24.0 ng/mL | 0.2511 L/kg and 0.3159 L/kg and 0.2492 L/kg | 11.9 min and 11.2 min and 11.0 min | 8.05 | 9.33 | 20.9 | 17.9 | 23.6 | 0.269 | 11.5 |  |  | Plasma Concentration ([1]; 5 min, individual rats): 24853 pg/mL; level at 0.25 h [1, 6]: 12.1 ng/mL; level at 0.5 h [1, 8]: 4.37 ng/mL; level at 1 h [1, 10]: 0.869 ng/mL; level at 2 h [1, 11]: < 0.15 ng/mL; Cmax [1, 15]: 25.4 ng/mL; Vd [1, 13]: 0.259 L/kg; half-life [1, 13]: 12 min
HVEGTFTSDVSSYLEEQAVKEFIAWLIKGGPSSGAPPPSH [SEQ ID NO:43] |  |  |  |  |  |  |  |  |  |  |  |  |  |  |  |  |  |  | 0.306 ± 0.02 | 1.06 ± 0.034 | 
HVEGTFTSDVSSYLEEQAAKEFIAWLIKGGPSSGDPPPS [Compound 2] | <150 ^a pg/mL | 17.3 |  | 6.82 | 2.95 | 1.05 | 312.2 ng·min/mL and 430.0 ng·min/mL and 409.1 ng·min/mL | 32.0 mL/min/kg and 23.3 mL/min/kg and 24.4 mL/min/kg | 9.8 ng/mL and 16.9 ng/mL and 21.4 ng/mL and 21.1 ng/mL | 0.9739 L/kg and 0.3557 L/kg and 0.2833 L/kg and 0.3134 L/kg | 35.8 min and 12.3 min and 10.6 min and 14.4 min | 6.93 | 8.55 | 24.8 | 19.5 | 17.3 | 0.482 | 18.3 |  |  | level at time molar at 1 h [2, 16]: 0.204 ± 0.024 nM; level at time molar at 1 h [2, 17]: 0.755 ± 0.072 nM
HVEGTFTSDVSSYLEEQAVKEFIAWLIKGGPSSGAPPPS-NH2 [SEQ ID NO:13] |  |  |  |  |  |  |  |  |  |  |  |  |  |  |  |  |  |  | 0.366 ± 0.059 | 1.32 ± 0.211 | 
HVEGTFTSDVSSYLEEQAVKEFIAWLIKGGPSSGAPPPS [SEQ ID NO:42] |  |  |  |  |  |  |  |  |  |  |  |  |  |  |  |  |  |  | 0.276 ± 0.036 | 1.11 ± 0.139 | 
HVEGTFTSDVSSYLEEQAVKEFIAWLIKGGPSSGAPPPRG [SEQ ID NO:48] |  |  |  |  |  |  |  |  |  |  |  |  |  |  |  |  |  |  | 0.227 ± 0.04 | 1.09 ± 0.106 | 
HVEGTFTSDVSSYLEEQAAKEFIAWLIKGGPSSGAPPPS [SEQ ID NO:55] |  |  |  |  |  |  |  |  |  |  |  |  |  |  |  |  |  |  | 0.246 ± 0.017 | 0.766 ± 0.046 | 
HVEGTFTSDVSSYLEEQAAKEFIAWLIKGGPSSGDPPPS-NH2 [Compound 1] | <150 ^a pg/mL | 23.5 | 24.6 | 9.61 | 3.1 | 0.554 | 478.8 ng·min/mL and 448.5 ng·min/mL and 469.4 ng·min/mL | 20.9 mL/min/kg and 22.3 mL/min/kg and 21.3 mL/min/kg | 24.1 ng/mL and 22.8 ng/mL and 22.4 ng/mL | 0.2463 L/kg and 0.2657 L/kg and 0.2704 L/kg | 10.1 min and 10.9 min | 7.92 | 8.41 | 21.1 | 19.8 | 23.5 | 0.264 | 11 |  |  | level at time molar at 1 h [2, 16]: 0.268 ± 0.045 nM; level at time molar at 1 h [2, 17]: 0.977 ± 0.135 nM; Plasma Concentration ([1]; 30 min, individual rats): 3119 pg/mL; level at 0.25 h [1, 6]: 10 ng/mL; level at 0.5 h [1, 8]: 3.12 ng/mL; level at 2 h [1, 11]: < 0.15 ng/mL; Cmax [1, 15]: 24.6 ng/mL; Vd [1, 13]: 0.273 L/kg; half-life [1, 13]: 13.1 min

Reference: patent US7482321B2, “Extended glucagon-like peptide-1 analogs” (Eli Lilly and Company, priority 2002, dated 2009)
